Patent publication US20080108633A1, “Use 540” (AstraZeneca AB, priority 2006, published 2008)
One block for each compound: values may come before it.

What was measured:
[1] = system: carrageenan-induced monoarthritis in rat; experiment: Monoarthritis induced by carrageenan, Paw Print setup (hindpaw weight-bearing, "Walking pain"); assay type: in vivo; conditions: for difference in weight bearing between the hind paws: three hours after carrageenan (two hours after administration), vehicle group 30.2±3.2%, mean ±SEM, n=8
Procedure: The compounds used according to the invention when given by systemic administration to mice or rats, specifically reduce pain in the rat carrageenan test as described by Tonussi and Ferreira (Pain 1992, 48, 421-427). One single injection of carrageenan directly into the rat knee joint produces symptoms peaking at 3 to 4 hours and lasting for one to two days, and which are sensitive to treatment by most anti-nociceptive drugs (Tonussi and Ferreira, Pain 1992, 48, 421-427). Under isoflurane anesthesia, 50 μL of carrageenan (7.5 mg/mL) was injected into the left tibio-tarsal (ankle) joint from the dorsal side. This injection causes a localized inflammation increasing to a maximum between 4 h to 8 h after induction, after which it gradually decreases, and the animals display decreased weight bearing on and guarding of the limb. The Paw Print walkway consists of a 100×10 cm path with an access point at one short end and an exit at the other, and the rats are trained to make a swift, continuous passage. The walkway has a glass floor where light is projected into one long edge via fiber optics. Projecting the light in this fashion allows for virtually complete internal reflection within the glass floor. Only where an object touches the glass, such as the placement of a rat paw, light is scattered at the point of contact and produces an illuminated print (Betts, Duckworth, Eng. Med. 1978, 7, 223-228) that is recorded by a wide-angle camera placed under the walkway. The light intensity (range 0-255) of the illumination depends on the degree of contact against the floor and increases with the applied pressure (Clarke, Physiology & Behavior 1995, 58, 415-419). The Paw Print setup is a modified version of the CatWalk introduced by […], van Laar, Veldhuis, Gispen (J. Neurotrauma 2001, 18, 187-201), and has a computerized gait detection algorithm extracting several parameters pertaining to the rat's gait pattern and weight-bearing. The animals were trained to cross the walkway twice, one and two days before induction of monoarthritis. Recordings were subsequently made on the day of testing, immediately before, and three and five hours after carrageenan injection, corresponding to two and four hours after per oral administration of test compound. The following parameters were used for analysis: Weight-bearing per paw=The total sum of maximum light intensities for all pixels in the print of one paw is multiplied by the number of pixels of the print area. A paw placement consists of a number of pixels with light intensity above a certain threshold value (80 in this study). During the time course of one paw placement, a maximum value of light intensity is recorded for each pixel. Based on the weight-bearing results, the Paw Print algorithm chooses the median print per paw in one walkway crossing. The median weight-bearing of each paw constitutes a percentage of the sum of all four paws' median weight-bearing results. The difference in percent weight-bearing between the two hind paws is shown (“Walking pain”). The test compounds were administered 60 min after induction of monoarthritis. […] Results were analysed using 1-Way ANOVA followed by Newman-Keuls for comparison between treatment groups for data obtained at each time-point after administration. The level of significance was set at p<0.05 (SigmaStat® 2.03).

human Trk A kinase = target: T1, human Trk A kinase (Homo sapiens, UniProt P04629); experiment: Trk A kinase assay (Alphascreen); assay type: biochemical; conditions: 70 μM ATP, 20 minutes, room temperature
T1 construct: HIS; made in house; host or cells: SF9 cells
T1 sequence (P04629 442-796): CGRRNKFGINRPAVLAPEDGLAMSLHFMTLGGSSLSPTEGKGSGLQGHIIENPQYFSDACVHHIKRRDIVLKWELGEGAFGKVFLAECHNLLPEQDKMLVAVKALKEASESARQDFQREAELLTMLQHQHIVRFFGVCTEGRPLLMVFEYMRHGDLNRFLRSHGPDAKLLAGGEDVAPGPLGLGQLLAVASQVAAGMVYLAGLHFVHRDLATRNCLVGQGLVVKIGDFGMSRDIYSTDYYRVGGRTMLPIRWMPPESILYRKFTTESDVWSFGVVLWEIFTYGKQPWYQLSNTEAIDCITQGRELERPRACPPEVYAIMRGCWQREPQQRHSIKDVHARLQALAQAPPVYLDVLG
Procedure: After incubation of the kinase with a biotinylated substrate and adenosine triphosphate (ATP) for 20 minutes at room temperature, the kinase reaction was stopped by the addition of 30 mM ethylenediaminetetraacetic acid (EDTA). The reaction was performed in 384 well microtitre plates and the reaction products were detected with the addition of strepavidin coated Donor Beads and phosphotyrosine-specific antibodies coated Acceptor Beads using the EnVision Multilabel Plate Reader after an overnight incubation at room temperature.

SMILES: CC(C)Oc1cc(Nc2nc(N[C@@H](C)c3ccc(F)cn3)ncc2Cl)n[nH]1 [5-Chloro-N^2-[(1S)-1-(5-fluoropyridin-2-yl)ethyl]-N^4-(5-isopropoxy-1H-pyrazol-3-yl)pyrimidine-2,4-diamine]
difference in weight bearing between the hind paws ([1]; 30 μmol/kg per oral): 9.2±4.0%
difference in weight bearing between the hind paws ([1]; 120 μmol/kg per oral): 14.9±4.4%
effect on the inflammatory pain induced by intra-articular ankle injection of carrageenan ([1]; all doses (30 μmol/kg, 60 μmol/kg p.o.)): significant effect
hindpaw weight distribution compared to the vehicle group ([1]; all three doses 30, 60 and 120 μmol/kg per oral, both at two and four hours after administration, p<0.05): significantly reduced
dose dependence of the effect on hindpaw weight distribution ([1]; dose interval tested, 30-120 μmol/kg per oral): no apparent dose dependence

IC50 (human Trk A kinase): 5 nM
SMILES: C[C@H](Nc1ncc(Br)c(Nc2cc(C3CC3)[nH]n2)n1)c1ccc(F)cn1 [(S)-5-Bromo-N^4-(5-cyclopropyl-1H-pyrazol-3-yl)-N^2-(1-(5-fluoropyridin-2-yl)ethyl)pyrimidine-2,4-diamine]

SMILES: C[C@H](Nc1ncc(Cl)c(Nc2cc(C3CC3)[nH]n2)n1)c1ccc(F)cn1 [(S)-5-Chloro-N^4-(5-cyclopropyl-1H-pyrazol-3-yl)-N^2-(1-(5-fluoropyridin-2-yl)ethyl)pyrimidine-2,4-diamine]
IC50 (human Trk A kinase): 8 nM

IC50 (human Trk A kinase): 10 nM
SMILES: C[C@H](Nc1ncc(F)c(Nc2cc(C3CC3)[nH]n2)n1)c1ccc(F)cn1 [(S)-5-Fluoro-N^4-(5-cyclopropyl-1H-pyrazol-3-yl)-N^2-(1-(5-fluoropyridin-2-yl)ethyl)pyrimidine-2,4-diamine]
